Experimental data reported in US20200330399A1, “COMBINATION THERAPY COMPRISING A POLYUNSATURATED KETONE AND A CORTICOSTEROID” (priority 2016, published 2020).

Test system: skin keratinocyte cell line HaCaT
Assay: Resazurin assay of HaCaT keratinocyte cell proliferation and viability
Type: cell-based, human
Conditions: Example 2, 24 hours, Calcipotriol alone 10 μM, FIG. 2
Description: The spontaneously immortalized, nontumorigenic skin keratinocyte cell line HaCaT was maintained in DMEM supplemented with 5% (v/v) FBS, 0.3 mg/ml glutamine and 0.1 mg/ml gentamicin at 37° C. with 5% CO2 in a humidified atmosphere. Subculture using trypsin-EDTA was performed every 3-4 days with split ratio of 1:3-1:4 to ensure actively proliferating cells.
Cells were seeded in 96 well plates in fully supplemented medium at a density of 2500 cells per well. Following 72 hours of cultivation, the cells were starved of serum in 0.25% FBS/DMEM overnight to halt proliferation, synchronize the cells and to increase cell sensitivity to treatment. On day 4, the cells were treated with cPLA2a inhibitor Compound A and corticosteroid Betamethasone 17, 21-dipropionate (Sigma Aldrich # B1152) and left to incubate for […] in incubator at 37° C. with 5% CO2 in a humidified atmosphere before fluorescence was read at 544 nm excitation and 590 nm emission wavelength. […]
Cells were seeded in 96 well plates in fully supplemented medium at a density of 2500 cells per well. […] On day 5, resazurin was added according to the manufacturer's instruction (RnD Systems, UK) and left to incubate for 2 hour incubator at 37° C. with 5% CO2 in a humidified atmosphere before fluorescence was read at 544 nm excitation and 590 nm emission wavelength. […]

## C=C1/C(=C\C=C2/CCC[C@]3(C)[C@@H]([C@H](C)/C=C/[C@@H](O)C4CC4)CC[C@@H]23)C[C@@H](O)C[C@@H]1O [Calcipotriol, Calcipotriol hydrate]
  reduction of cell proliferation: 20%
